Among the test systems are CAKI-1 renal; HCT-116 colon; HOP-62 NSCLC; IGROV1 ovarian; KM12 colon; MALME-3M melanoma; MOLT-4 leukemia; OVCAR-8 ovarian; RXF 393 renal; UACC-257 melanoma.
Test in all cases: growth of human tumour cells (NCI), 48 h

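These data come from cells grown in 96-well plates and exposed to compound for 48 hours at five concentrations. GI50 is the concentration that inhibits growth by half. Definition used: TGI = concentration required for complete inhibition of growth.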

Six molecules from PubChem BioAssay (NCI) can be followed below.

On to `Cc1c(C(N)=O)sc2c1c(=O)n(Cc1ccccc1)c1nnc(S(=O)(=O)CC(=O)Nc3ccc(Cl)cc3)n21`, for which the GI50 was 2.94 µM with CAKI-1 renal; 2.1 µM with HCT-116 colon; 2.51 µM in the test on HOP-62 NSCLC; 8.57 µM in the test with IGROV1 ovarian; 4.54 µM in the test with KM12 colon; 3.96 µM in the test with MALME-3M melanoma. For the same molecule, the GI50 in the test on MOLT-4 leukemia is 15.6 µM; in the test with OVCAR-8 ovarian, 3.69 µM; in the test with RXF 393 renal it was 2.41 µM; with UACC-257 melanoma, 2.68 µM. The TGI with CAKI-1 renal was determined as 11.8 µM; in the test on HCT-116 colon it was 5.22 µM; in the test with HOP-62 NSCLC, 5.99 µM; in the test with IGROV1 ovarian it was 24.3 µM; with KM12 colon, 16.2 µM; with MALME-3M melanoma, 17.5 µM. In addition, the TGI with MOLT-4 leukemia came out at 46.8 µM; in the test with OVCAR-8 ovarian, 15.6 µM; in the test with RXF 393 renal, 7.13 µM; in the test with UACC-257 melanoma, 7.88 µM.

For the molecule `COC(=O)C1=C(c2ccc(Cl)cc2)C(O)N=C(NN)N1` (stereo not given), the TGI with CAKI-1 renal, in the test with HCT-116 colon, in the test with HOP-62 NSCLC, in the test on IGROV1 ovarian, in the test with KM12 colon and in the test with MALME-3M melanoma was > 100 µM in each case. Further, the TGI with MOLT-4 leukemia, in the test on OVCAR-8 ovarian, with RXF 393 renal and in the test with UACC-257 melanoma was > 100 µM each time.

For the molecule `CN(C)c1ncnc2c1ccn2C1OC(CO)C(O)C1O` (stereo not given), the GI50 in the test on CAKI-1 renal is 1.58 µM; in the test on HCT-116 colon, 2.97 µM; with HOP-62 NSCLC, 1.71 µM; with IGROV1 ovarian it was 0.237 µM; with KM12 colon, 34.9 µM; in the test with MALME-3M melanoma, 92.6 µM. The GI50 is 0.278 µM in the test with MOLT-4 leukemia, 0.89 µM in the test with OVCAR-8 ovarian, 18.1 µM with RXF 393 renal and > 100 µM in the test with UACC-257 melanoma. For the same molecule, the TGI with CAKI-1 renal was > 39.8 µM; in the test with HCT-116 colon, > 100 µM; in the test with HOP-62 NSCLC, > 100 µM; in the test on IGROV1 ovarian it was 4.22 µM; with KM12 colon it was > 100 µM; with MALME-3M melanoma, > 100 µM. The TGI is 1.95 µM in the test with MOLT-4 leukemia, 6.81 µM in the test with OVCAR-8 ovarian, > 100 µM in the test with RXF 393 renal and > 100 µM in the test on UACC-257 melanoma.

`COC(=O)Nc1nc2ccc(S(=O)(=O)c3ccc(NC(=O)Nc4cc(C(F)(F)F)ccc4F)cc3)cc2[nH]1`: the GI50 in the test with CAKI-1 renal was > 25 µM; with HCT-116 colon, > 25 µM; in the test with HOP-62 NSCLC, > 25 µM; in the test with IGROV1 ovarian, > 25 µM; in the test with KM12 colon it was > 21.1 µM; in the test on MALME-3M melanoma, > 25 µM. For the same molecule, the GI50 in the test on MOLT-4 leukemia, in the test with OVCAR-8 ovarian, with RXF 393 renal and with UACC-257 melanoma was > 25 µM throughout. For the same molecule, the TGI with CAKI-1 renal, in the test on HCT-116 colon, with HOP-62 NSCLC, in the test with IGROV1 ovarian, in the test on KM12 colon and with MALME-3M melanoma was > 25 µM in each case. Moreover, the TGI with MOLT-4 leukemia, with OVCAR-8 ovarian, in the test on RXF 393 renal and in the test on UACC-257 melanoma was > 25 µM in each case.

For the molecule `CC(C)=CCc1cc(C2COc3cc4c(c(O)c3C2=O)C=CC(C)(C)O4)c(O)cc1O` (stereo not given), the TGI in the test on CAKI-1 renal worked out at 30.9 µM; in the test on HCT-116 colon it was 54.5 µM; in the test on HOP-62 NSCLC, 32.3 µM; with IGROV1 ovarian it was 36.4 µM; with KM12 colon it was 32.7 µM; in the test on MALME-3M melanoma, 28.3 µM. Moreover, the TGI with MOLT-4 leukemia turned out to be 20.7 µM; in the test with OVCAR-8 ovarian, 51.2 µM; in the test on RXF 393 renal it was 20.6 µM; with UACC-257 melanoma, 27.4 µM.

For the molecule `O=[N+]([O-])c1cc2c(ccc3occc32)o1`, the GI50 in the test on CAKI-1 renal is 1.87 µM; with HCT-116 colon, 1.34 µM; in the test with HOP-62 NSCLC, 3.94 µM; with IGROV1 ovarian, 1.55 µM; in the test with KM12 colon it was 2.78 µM; in the test with MALME-3M melanoma it was 1.54 µM. Also, the GI50 was 2.31 µM in the test on MOLT-4 leukemia, 2.45 µM with OVCAR-8 ovarian, 1.49 µM with RXF 393 renal and 1.77 µM in the test with UACC-257 melanoma. Moreover, the TGI in the test on CAKI-1 renal turned out to be 4.57 µM; in the test with HCT-116 colon it was 5.73 µM; with HOP-62 NSCLC it was 21.5 µM; in the test on IGROV1 ovarian, 7.32 µM; in the test with KM12 colon, 7.31 µM; in the test on MALME-3M melanoma, 3.11 µM. The TGI was 28.6 µM in the test with MOLT-4 leukemia, 21 µM with OVCAR-8 ovarian, 3.17 µM with RXF 393 renal and 3.88 µM in the test with UACC-257 melanoma.
